Patent US6350585B1, “Reagent for assay of amylase isozyme activity” (priority 1998, dated 2002)

How the values were obtained:
[1] = biological target: T1, S-type amylase (Calibzyme S) (Homo sapiens, UniProt P0DUB6); test: amylase isozyme activity assay with potassium thiocyanate as activator, S-type amylase sample; format: biochemical; conditions: for Relative sensitivity: G3CNP at 900 mM = 100; for Percent residual enzyme activity: composition A/B
T1 construct: purchased International Reagents Corporation Calibzyme S
T1 sequence (P0DUB6 16-511): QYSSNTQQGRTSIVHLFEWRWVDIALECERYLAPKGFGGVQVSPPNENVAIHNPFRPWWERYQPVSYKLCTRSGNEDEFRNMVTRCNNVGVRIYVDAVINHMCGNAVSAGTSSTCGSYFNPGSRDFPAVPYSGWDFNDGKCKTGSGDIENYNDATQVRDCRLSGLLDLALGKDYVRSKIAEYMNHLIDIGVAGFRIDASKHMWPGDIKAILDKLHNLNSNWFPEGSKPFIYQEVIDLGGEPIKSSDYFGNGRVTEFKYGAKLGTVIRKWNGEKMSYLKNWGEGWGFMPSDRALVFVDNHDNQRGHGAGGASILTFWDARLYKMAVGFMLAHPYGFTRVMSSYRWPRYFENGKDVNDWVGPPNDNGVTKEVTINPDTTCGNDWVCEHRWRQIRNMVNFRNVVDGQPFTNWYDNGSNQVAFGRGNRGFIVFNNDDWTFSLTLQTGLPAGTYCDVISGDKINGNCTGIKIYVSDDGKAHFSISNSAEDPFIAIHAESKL
Method: A reagent for amylase isozyme activity assay comprising each composition as mentioned below was prepared. In the Table showing the composition, GalG2CNP (Example) is 2-chloro-4-nitrophenyl 4-O-β-D-galactopyranosylmaltoside, and G3CNP (Comparative Example) is 2-chloro-4-nitrophenylmaltotrioside.
S-type amylase-inhibiting antibody 88E8 (manufactured by Roche Diagnostics K.K.) 20 mg/L
S-type amylase-inhibiting antibody 66C7 (manufactured by Roche Diagnostics K.K.) 5 mg/L
(§1) Substrate (GalG2CNP (Example) or G3CNP (Comparative Example)) 2.6 mM
(3) S-type Amylase (Calibzyme S, Manufactured by International Reagents Corporation)
Each sample (0.05 mL was added to the reagent A (3 mL) and the reagent B (3 mL), respectively, and the mixtures were allowed to stand at 37° C. for 3 minutes. Then, the change in absorbance at 405 nm was assayed, and the change in absorbance per minute was calculated. The results are shown in Tables 1 and 2.
In the Tables, P is the case where P-type amylase was used as the sample, and S is the case where S-type amylase was used.
Percent residual enzyme activity (%)=(change in absorbance of composition A)/(change in absorbance of composition B)×100
Relative sensitivity (%)=(change in absorbance of composition B)/(change in absorbance of Comparative Example wherein potassium thiocyanate was 900 mM)×100

[2] = biological target: T2, P-type amylase (Homo sapiens, UniProt P04746); test: P-type amylase activity assay of serum with reagent E; format: biochemical; conditions: for P-type amylase activity value: potassium thiocyanate 140 mM
T2 construct: Serum (1, 2 or 3); from tissue; host or cells: serum
T2 sequence (P04746 16-511): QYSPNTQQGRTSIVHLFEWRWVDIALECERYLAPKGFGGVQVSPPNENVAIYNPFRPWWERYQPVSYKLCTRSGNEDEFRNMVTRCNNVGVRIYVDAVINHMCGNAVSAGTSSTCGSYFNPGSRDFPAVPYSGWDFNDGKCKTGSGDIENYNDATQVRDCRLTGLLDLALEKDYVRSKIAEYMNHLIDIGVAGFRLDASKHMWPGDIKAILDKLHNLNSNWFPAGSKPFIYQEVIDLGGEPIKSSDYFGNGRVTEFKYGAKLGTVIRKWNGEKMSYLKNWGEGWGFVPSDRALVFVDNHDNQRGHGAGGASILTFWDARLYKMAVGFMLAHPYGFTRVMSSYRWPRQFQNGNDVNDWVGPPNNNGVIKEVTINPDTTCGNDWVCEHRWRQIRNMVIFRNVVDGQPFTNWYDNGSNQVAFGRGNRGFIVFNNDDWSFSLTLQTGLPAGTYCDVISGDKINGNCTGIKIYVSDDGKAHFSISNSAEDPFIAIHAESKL
Method: Good buffer (pH 6.2) 50 mM
S-type amylase inhibitory antibody 88E8 (manufactured by Roche Diagnostics K.K.) 15 mg/L
S-type amylase inhibitory antibody 66C7 (manufactured by Roche Diagnostics K.K.) 1.25 mg/L
Potassium thiocyanate 140 mM
as §1
(1) Distilled water (blank)
Each of the above-mentioned reagents (0.05 mL) was added to the above reagent E (3 mL) and the mixtures were left standing at 37° C. for 3 minutes. Then, change in absorbance at 405 nm was assayed and change in absorbance per minute was calculated. The obtained change in absorbance was converted to P-type amylase activity value at this composition using the molecular extinction coefficient of CNP.

## O=[N+]([O-])c1ccc(O[C@H]2O[C@H](CO)[C@@H](O[C@H]3O[C@H](CO)[C@@H](O[C@@H]4O[C@H](CO)[C@H](O)[C@H](O)[C@H]4O)[C@H](O)[C@H]3O)[C@H](O)[C@H]2O)c(Cl)c1 [GalG2CNP, 2-chloro-4-nitrophenyl 4-O-β-D-galactopyranosylmaltoside]
[1]; potassium thiocyanate 0 mM
  Change in absorbance, Containing Antibody (Composition A): 0.9 mABS/min
  Change in absorbance, Without antibody (Composition B): 14.3 mABS/min
  Relative sensitivity: 32.0%
  Percent residual enzyme activity: 6.3%
[1]; potassium thiocyanate 50 mM
  Change in absorbance, Containing Antibody (Composition A): 1.4 mABS/min
  Change in absorbance, Without antibody (Composition B): 31.1 mABS/min
  Relative sensitivity: 69.6%
  Percent residual enzyme activity: 4.5%
[1]; potassium thiocyanate 100 mM
  Change in absorbance, Containing Antibody (Composition A): 1.7 mABS/min
  Change in absorbance, Without antibody (Composition B): 40.2 mABS/min
  Relative sensitivity: 89.9%
  Percent residual enzyme activity: 4.2%
[1]; potassium thiocyanate 140 mM
  Change in absorbance, Containing Antibody (Composition A): 1.8 mABS/min
  Change in absorbance, Without antibody (Composition B): 44.6 mABS/min
  Relative sensitivity: 99.8%
  Percent residual enzyme activity: 4.0%
[1]; potassium thiocyanate 200 mM
  Change in absorbance, Containing Antibody (Composition A): 2.2 mABS/min
  Change in absorbance, Without antibody (Composition B): 50.0 mABS/min
  Relative sensitivity: 111.9%
  Percent residual enzyme activity: 4.4%
[1]; potassium thiocyanate 300 mM
  Change in absorbance, Containing Antibody (Composition A): 3.0 mABS/min
  Change in absorbance, Without antibody (Composition B): 53.6 mABS/min
  Relative sensitivity: 119.9%
  Percent residual enzyme activity: 5.6%
[1]; potassium thiocyanate 400 mM
  Change in absorbance, Containing Antibody (Composition A): 3.8 mABS/min
  Change in absorbance, Without antibody (Composition B): 54.5 mABS/min
  Relative sensitivity: 121.9%
  Percent residual enzyme activity: 7.0%
[1]; potassium thiocyanate 500 mM
  Change in absorbance, Containing Antibody (Composition A): 4.7 mABS/min
  Change in absorbance, Without antibody (Composition B): 53.7 mABS/min
  Relative sensitivity: 120.1%
  Percent residual enzyme activity: 8.8%
[1]; potassium thiocyanate 600 mM
  Change in absorbance, Containing Antibody (Composition A): 5.7 mABS/min
  Change in absorbance, Without antibody (Composition B): 51.9 mABS/min
  Relative sensitivity: 116.1%
  Percent residual enzyme activity: 11.0%
[1]; potassium thiocyanate 700 mM
  Change in absorbance, Containing Antibody (Composition A): 7.2 mABS/min
  Change in absorbance, Without antibody (Composition B): 48.6 mABS/min
  Relative sensitivity: 108.7%
  Percent residual enzyme activity: 14.8%
[1]; potassium thiocyanate 800 mM
  Change in absorbance, Containing Antibody (Composition A): 8.2 mABS/min
  Change in absorbance, Without antibody (Composition B): 47.1 mABS/min
  Relative sensitivity: 105.4%
  Percent residual enzyme activity: 17.4%
[1]; potassium thiocyanate 900 mM
  Change in absorbance, Containing Antibody (Composition A): 9.6 mABS/min
  Change in absorbance, Without antibody (Composition B): 43.3 mABS/min
  Relative sensitivity: 96.9%
  Percent residual enzyme activity: 22.2%
[2]; Serum 1, composition E
  P-type amylase activity value: 32.3 IU/L
[2]; Serum 2, composition E
  P-type amylase activity value: 205.0 IU/L
[2]; Serum 3, composition E
  P-type amylase activity value: 156.8 IU/L
[2]; Table 5, serum samples
  sensitivity (change in absorbance) compared with Comparative Example: superior sensitivity
[2]; distilled water as sample, composition E
  Blank, change in absorbance per minute: 0.0004 ABS/min
